{
  "source": "patent EP4729529A1",
  "about": "“PREPARATION OF PEPTIDE INHIBITOR OF INTERLEUKIN-23 RECEPTOR AND USE THEREOF” (Xizang Haisco Pharmaceutical Co., Ltd., priority 2023, dated 2024)",
  "experiment": "Pharmacokinetic test in mice (intravenous and intragastric, plasma LC-MS/MS)",
  "format": "in vivo",
  "conditions": "male, mouse, Balb/c mice",
  "protocol": "4. Pharmacokinetic test in mice\n4.1. Experimental animals: Male Balb/c mice (20-25 g, 18 mice/compound) were purchased from Chengdu Dossy Experimental Animals Co., Ltd.\n4.2. Experimental design: On the day of the experiment, the Balb/c mice were randomly grouped by body weight. The animals were fasted with water available for 12-14 h one day before the administration, and were fed 4 h after the administration. Table 4. Administration information\nBefore and after administration, 0.06 mL of blood was taken from the orbit under isoflurane anaesthesia, and placed in an EDTAK2 centrifuge tube. The tube was centrifuged at 5000 rpm at 4°C for 10 min, and plasma was collected. The blood collection time points for the intravenous group and intragastric group were both 0 min, 5 min, 15 min, 30 min, 1 h, 2 h, 4 h, 6 h, 8 h, and 24 h. Before analysis and detection, all samples were stored at -80°C, and the samples were quantitatively analysed by LC-MS/MS. Table 5. Pharmacokinetic parameters of test compounds in mouse plasma",
  "note": "Positions of bridges follow the written chain, without caps; N, C: chain ends. Non-standard residues stand in square brackets, D forms with d. Residues, ends and D or L forms follow the SMILES beside them. Phe(4-OC2H4NH2,2,3-(CH2)3) = NCCOc1ccc(C[C@H](N)C(=O)O)c2c1CCC2; Trp(7-Me) = Cc1cccc2c(C[C@H](N)C(=O)O)c[nH]c12; 2Nal = N[C@@H](Cc1ccc2ccccc2c1)C(=O)O; 3Pal = N[C@@H](Cc1cccnc1)C(=O)O; Pen = CC(C)(S)[C@H](N)C(=O)O; Thp = NC1(C(=O)O)CCOCC1; Sar = CNCC(=O)O",
  "data": [
    {"smiles": "CC(=O)NCCCC[C@@H]1NC(=O)[C@H](Cc2c[nH]c3c(C)cccc23)NC(=O)[C@H]([C@@H](C)O)NC(=O)[C@H](Cc2c[nH]cn2)NC(=O)[C@@H](NC(C)=O)C(C)(C)SSC(C)(C)[C@@H](C(=O)N[C@@H](Cc2ccc(OCCN)c3c2CCC3)C(=O)N[C@@H](Cc2ccc3ccccc3c2)C(=O)NC2(C(=O)N[C@@H](CCC(=O)O)C(=O)N[C@@H](CC(N)=O)C(=O)N[C@@H](Cc3cccnc3)C(=O)N(C)CC(N)=O)CCOCC2)NC1=O", "note": "[Compound 7] (Ac-[Pen]HT[Trp(7-Me)]K(Ac)[Pen][Phe(4-OC2H4NH2,2,3-(CH2)3)][2Nal][Thp]EN[3Pal][Sar]-NH2; disulfide 1-6)", "values": [
      {"measurement": "AUC(0-t)", "setting": "iv, i.v. (1 mg/kg)", "result": "4.72 ± 0.512", "unit": "µg·h/mL"},
      {"measurement": "clearance", "setting": "iv, i.v. (1 mg/kg)", "result": "0.211 ± 0.0228", "unit": "L/h/kg"},
      {"measurement": "Vd", "setting": "iv, i.v. (1 mg/kg), read-out: Vdss", "result": "0.261 ± 0.01", "unit": "L/kg"},
      {"measurement": "AUC(0-t)", "setting": "po, i.g. (10 mg/kg)", "result": "0.227 ± 0.1", "unit": "µg·h/mL"},
      {"measurement": "bioavailability", "setting": "po, i.g. (10 mg/kg)", "result": "0.482 ± 0.21", "unit": "%"}
    ]}
  ]
}
